The target of assay [1] is Mu-type opioid receptor (Cavia porcellus, UniProt P97266). Description: Agonistic activity at mu opioid receptor in guinea pig ileum assessed as inhibition of electrically evoked twitch. The format is functional, tissue-based.
The target in assay [2] is Opioid receptors; mu & delta (Rattus norvegicus) (UniProt P33533+P33535). Description: Selectivity of rat brain delta opioid receptor over rat brain mu opioid receptor.
Assay [3] addresses Delta-type opioid receptor (Mus musculus) (UniProt P32300). Description: Antagonist activity at delta opioid receptor in mouse vas deferens assessed as effect on electrically evoked twitch. The format is functional, tissue-based. To be noted: filed as antagonist.
In assay [4] the target is Mu-type opioid receptor (Rattus norvegicus, UniProt P33535). Description: Displacement of [3H]DAMGO from mu opioid receptor in rat brain synaptosomes P2 fraction. The format is subcellular. (In general: Displacement assays read how much labelled ligand stays bound in the presence of the test substance.)
Assay [5] has as its target Delta-type opioid receptor (Mus musculus, UniProt P32300). Kind of assay: Agonistic activity at delta opioid receptor in mouse vas deferens assessed as inhibition of electrically evoked twitch. The format is functional, tissue-based.
In assay [6] the target is Delta-type opioid receptor (Rattus norvegicus, UniProt P33533). Kind of assay: Displacement of [3H]DPDPE from delta opioid receptor in rat brain synaptosomes P2 fraction. The class given is subcellular.

The structures appear in SMILES notation. Where a SMILES comes first, the peptide text is derived from it.

Sequence of Opioid receptors; mu & delta (Rattus norvegicus) (P33533 whole entry, looked up): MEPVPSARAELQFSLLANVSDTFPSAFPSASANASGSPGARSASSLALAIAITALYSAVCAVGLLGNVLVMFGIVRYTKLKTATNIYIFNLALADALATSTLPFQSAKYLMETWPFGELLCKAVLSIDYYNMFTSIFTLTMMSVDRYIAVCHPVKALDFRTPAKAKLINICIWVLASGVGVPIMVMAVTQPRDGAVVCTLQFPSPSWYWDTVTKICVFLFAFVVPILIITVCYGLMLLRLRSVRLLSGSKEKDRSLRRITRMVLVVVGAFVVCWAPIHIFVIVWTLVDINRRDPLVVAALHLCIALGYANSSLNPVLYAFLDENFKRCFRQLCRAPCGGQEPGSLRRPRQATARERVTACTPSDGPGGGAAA
Sequence of Opioid receptors; mu & delta (Rattus norvegicus) (P33535 whole entry, looked up): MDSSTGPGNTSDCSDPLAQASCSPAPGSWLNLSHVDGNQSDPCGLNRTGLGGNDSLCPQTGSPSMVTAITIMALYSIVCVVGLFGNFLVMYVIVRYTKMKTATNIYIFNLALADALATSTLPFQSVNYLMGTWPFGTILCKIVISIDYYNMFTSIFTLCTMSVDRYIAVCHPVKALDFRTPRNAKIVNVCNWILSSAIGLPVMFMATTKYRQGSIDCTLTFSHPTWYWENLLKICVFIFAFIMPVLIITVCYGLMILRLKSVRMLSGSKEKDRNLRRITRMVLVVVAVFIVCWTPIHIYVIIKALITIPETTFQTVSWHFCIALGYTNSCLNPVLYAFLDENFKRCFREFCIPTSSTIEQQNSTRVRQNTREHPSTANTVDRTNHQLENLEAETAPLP
Sequence of Mu-type opioid receptor (Cavia porcellus, UniProt P97266) (P97266 whole entry): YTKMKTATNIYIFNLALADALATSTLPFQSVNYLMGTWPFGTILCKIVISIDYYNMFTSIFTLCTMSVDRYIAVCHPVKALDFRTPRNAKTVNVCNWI
Sequence of Delta-type opioid receptor (Mus musculus) (P32300 whole entry): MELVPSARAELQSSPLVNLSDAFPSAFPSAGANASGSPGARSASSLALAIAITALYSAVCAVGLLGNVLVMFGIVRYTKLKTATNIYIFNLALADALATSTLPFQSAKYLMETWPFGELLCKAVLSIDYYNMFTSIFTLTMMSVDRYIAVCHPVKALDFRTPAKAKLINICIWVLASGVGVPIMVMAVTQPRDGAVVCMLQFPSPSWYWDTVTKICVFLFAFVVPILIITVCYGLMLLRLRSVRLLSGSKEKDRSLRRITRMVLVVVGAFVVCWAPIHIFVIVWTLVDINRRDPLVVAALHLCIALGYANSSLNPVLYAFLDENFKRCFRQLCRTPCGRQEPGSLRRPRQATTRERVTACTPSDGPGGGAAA
Sequence of Delta-type opioid receptor (Mus musculus, UniProt P32300) (P32300 whole entry): as above
Sequence of Delta-type opioid receptor (Rattus norvegicus, UniProt P33533) (P33533 whole entry): as the sequence (P33533 whole entry, looked up) above
Sequence of Mu-type opioid receptor (Rattus norvegicus, UniProt P33535) (P33535 whole entry): as the sequence (P33535 whole entry, looked up) above

What is called IC50 is the concentration that inhibits the measured activity by half. Consider `Cc1cc(O)cc(C)c1C[C@H](N)C(=O)N1Cc2ccccc2C[C@H]1C(=O)N[C@@H](CCC(=O)O)C(=O)NCCCCCN`, for which the IC50 on Mu-type opioid receptor [1] is > 1000 nM.

As for `Cc1cc(O)cc(C)c1C[C@H](N)C(=O)N1Cc2ccccc2C[C@H]1C(=O)N[C@@H](CCC(=O)O)C(=O)NCCCCCNC(=S)Nc1ccc(-c2c3ccc(=O)cc-3oc3cc(O)ccc23)c(C(=O)O)c1`, the IC50 on Mu-type opioid receptor [1] is > 1000 nM.

Regarding `Cc1cc(O)cc(C)c1C[C@H](N)C(=O)N1Cc2ccccc2CC1C(=O)N[C@@H](CCC(=O)O)C(=O)NCCCCCN` (stereo not given in full), in assay [2], the Ratio Ki was determined as 1700.

Turning to `Cc1cc(O)cc(C)c1C[C@H](N)C(=O)N1Cc2ccccc2CC1C(=O)N[C@@H](CCC(=O)O)C(=O)NCCCCCNC(=S)Nc1ccc(-c2c3ccc(=O)cc-3oc3cc(O)ccc23)c(C(=O)O)c1` (stereo not given in full), in assay [2], the Ratio Ki is 4370. The Activity entry in assay [3] was “Irreversible Antagonist”.

As usually defined, the Ki is the dissociation constant of the complex between target and ligand, obtained from inhibition or displacement. The low end stands for tighter binding, the high end for weaker binding. As to `Cc1cc(O)cc(C)c1C[C@H](N)C(=O)N1Cc2ccccc2C[C@H]1C(=O)N[C@@H](CCC(=O)O)C(N)=O` (HELM PEPTIDE1{[Cc1cc(O)cc(C)c1C[C@H](N)C(=O)[*:2]].[Tic].E.[am]}$$$$V2.0), the Ki on Mu-type opioid receptor [4] is 1360 nM (antagonist); in assay [6], 0.06 nM (antagonist). Besides, in assay [2], the Ratio Ki was determined as 22600. In addition, the IC50 was > 1000 nM at Mu-type opioid receptor [1] and 2.58 nM (agonist) in assay [5].
